Active and inactive are the calls of the source.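 How the source made its calls: active means compounds giving half or more protection of infected cells from virus-caused growth loss, again on retest; inactive means the rest.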 Where a SMILES comes first, the peptide text is derived from it. Bridges are numbered along the chain shown (N, C = ends). Roman numbers before positions name the chains, in order. The star is where a group is joined. Boc = CC(C)(C)OC(=O)*
Test system: CEM cells HIV-1 protection, formazan growth assay
Experiment: NCI AIDS Antiviral Assay
Conditions: for IC50: measured here: growth of uninfected CEM cells
Method in brief: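 Human CEM cells, uninfected and HIV-1-infected, exposed to five drug concentrations; growth measured by soluble formazan assay and scored as percent protection from infection, with protecting compounds retested.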

Row | Compound | EC50 | IC50 | outcome
1 | C[S+]1CC2C3CC(C#N)C(C3)C2C1 (stereo not drawn) | > 275 µM | > 275 µM | –
2 | Cc1[nH]c(=O)nc(NCCNCCO)c1C(=O)Nc1cccc2cc3ccccc3cc12 | > 200 µM | > 200 µM | –
3 | COc1cc2c(cc1OC)C(C(=O)c1cccc(OC)c1OC)C(=O)N(C)CC2 (stereo not drawn) | > 126 µM | > 126 µM | –
4 | Cc1ccc(C)c(NC(=O)C(=O)C2C(=O)C3=C(CC2(C)C)Nc2ccccc2S3)c1 (stereo not drawn) | > 85.1 µM | > 85.1 µM | –
5 | CNC(=O)n1ncc2ccc([N+](=O)[O-])cc21 | > 200 µM | 158 µM | –
6 | O=S(=O)(c1ccccc1)N1C2CCCC21 (stereo not drawn) | – | – | inactive
7 | CCC1(OC(=O)CNC)C(=O)OCc2c1cc1n(c2=O)Cc2cc3ccccc3nc2-1 (stereo not drawn) | > 10 µM | 0.00977 µM | –
8 | O=c1[nH]c2cc([N+](=O)[O-])ccc2nc1/C(=N\Nc1ccccc1)C(O)c1ccc2c(c1)OCO2 (stereo not drawn) | > 447 µM | 214 µM | –
9 | C=C=C(CCC(=O)c1ccccc1)S(=O)(=O)c1ccccc1 | > 200 µM | 11 µM | –
10 | c1ccc2cc(C3NCCc4[nH]cnc43)ccc2c1 (stereo not drawn) | > 28.8 µM | > 28.8 µM | –
11 | CCn1ncc2c1nc(-c1ccccc1)c[n+]2[O-] | > 200 µM | > 200 µM | –
12 | CCOC(=O)c1cc(-c2ccccn2)c(=O)n2ccccc12 | > 200 µM | 49 µM | –
13 | CCC1(C)C=Cc2c(cc(OC)c3c(=O)c4ccccc4n(C)c23)O1 (stereo not drawn) | > 200 µM | 24.5 µM | –
14 | CNC(=O)[C@@H](C)C1C(=O)/C(=C(O)\C=C\C(C)C)C(=O)N1C1CCC(O)C(C)O1 (stereo partly drawn) | – | – | inactive
15 | CCN(CC)CC1CCCCN1CC(=O)N1c2ccccc2NC(=O)c2ccccc21 (stereo not drawn) | > 200 µM | > 200 µM | –
16 | CSCCC(NC(=O)C(CC(C)C)NC(=O)C1CCCN1C(=O)C(Cc1ccccc1)NC(=O)C(Cc1ccccc1)NC(=O)C(CCC(=O)O)NC(=O)OC(C)(C)C)C(N)=O (stereo not drawn) (Boc-EFFPLM-NH2; configuration not given here) | > 282 µM | > 282 µM | –
17 | COc1cc(/C=C(\C#N)C(=O)c2ccccc2)cc(OC)c1OC | > 16.2 µM | > 16.2 µM | –
18 | O=C(c1cc(Cl)c(O)c(C(=O)O)c1)c1cc(Cl)c(O)c(C(=O)O)c1 | > 61.7 µM | 56.2 µM | –
19 | CC(C)[C@@H]1CC[C@@H](C)C[C@H]1OC(=O)c1c2n(c3ccccc13)C[C@H]1OC(C)(C)O[C@@H]21 | > 100 µM | 77.6 µM | –
20 | C=CC[C@]1(C(C)C(OC(C)=O)c2ccc3c(c2)OCO3)C[C@@H](OC)C=CC1=O (stereo partly drawn) | > 20 µM | 1.48 µM | –

Row | Compound | EC50 | IC50 | outcome
21 | O=C1NC(=Nc2ccccc2Cl)SC1C(=O)Nc1ccc([N+](=O)[O-])cc1[N+](=O)[O-] (stereo not drawn) | > 115 µM | > 115 µM | –
22 | Cc1ccc(S(=O)(=O)C(C#N)c2nc3ccccc3nc2-n2ccnc2)cc1 (stereo not drawn) | > 200 µM | 155 µM | –
23 | c1csc(-c2cc(-c3cccs3)c(-c3ccsc3)s2)c1 | > 200 µM | 33.1 µM | –
24 | O=S(=O)(c1ccccc1)c1cccc2c1NCCC2 | 21.9 µM | 95.5 µM | –
25 | CCOC(=O)c1nc2c(C)nc(N(C)C)nc2n(C)c1=O | > 200 µM | > 200 µM | –
26 | Cc1ccccc1-n1c(=O)nc2n(-c3ccc(C(C)(C)C)cc3)c3ccccc3cc-2c1=O | > 200 µM | 14.1 µM | –
27 | C=C[C@H](C)[C@H](O[Si](C)(C)C(C)(C)C)c1c(O)c2c(c3c(CCC)cc(=O)oc13)OC(C)(C)C=C2 | > 200 µM | 39.8 µM | –
28 | O=C1Cc2c([nH]c3ccc(Br)cc23)-c2ccccc2N1 | > 200 µM | 2.95 µM | –
29 | O=[N+]([O-])c1ccc(C2=NOC(c3ccccc3)N2C23CC4CC(CC(C4)C2)C3)cc1 (stereo not drawn) | > 200 µM | 107 µM | –
30 | COC(=O)N[C@H](C(=O)O)C(C)O[Si](C)(C)C(C)(C)C (stereo partly drawn) | > 851 µM | > 851 µM | –
31 | COc1ccc(/C=C2\SC(=S)N(/C=C3\C(=O)N(c4ccccc4)N=C3C)C2=O)cc1OC | > 200 µM | 28.2 µM | –
32 | COC1OCC(SC(=O)c2ccccc2)C(O)C1O (stereo not drawn) | > 200 µM | 141 µM | –
33 | CN(C)c1ccc(N=C2C=CC(=C(C#N)C#N)c3ccccc32)cc1 | – | – | inactive
34 | C=C(C)CNC(=S)N(N)c1ccc(OC)cc1 | > 200 µM | 69.2 µM | –
35 | CC(C)CC(NC(=O)C(N)CSSCC(N)C(=O)NC(CC(C)C)C(=O)O)C(=O)O (stereo not drawn) (I: H-Cys-Leu-OH / II: H-Cys-Leu-OH; disulfide I:1-II:1; configuration not given here) | – | – | inactive
36 | CC1=CC=C2c3ccccc3C=CN2C(=O)C1 | > 200 µM | 89.1 µM | –
37 | Cc1cc([N+](=O)[O-])c(C)c2c1[nH]c1ccc(O)cc12 | > 38.9 µM | 6.92 µM | –
38 | CC1=CCC(Br)C(C)(C)C12CCC(C)(Cl)C(Br)C2 (stereo not drawn) | > 200 µM | 29.5 µM | –
39 | COc1c(O)c2c(=O)cc(OC)c3c4c(OC)cc(=O)c5c(O)c(OC)c(C[C@H](C)O)c(c(c1CC(C)O)c23)c54 (stereo partly drawn) | – | – | inactive
40 | CC(C)C[C@H]1[C@@H](OCc2ccccc2)COS(=O)N1[C@H](C)c1ccccc1 (stereo partly drawn) | > 200 µM | 9.55 µM | –

Row | Compound | EC50 | IC50 | outcome
41 | CCN(CC)c1c(C(=O)/C=C/c2ccc(Cl)cc2)c(-c2ccccc2)nn(C)c1=O | > 23.4 µM | 4.9 µM | –
42 | CC12CCC(=O)N1c1cnccc1N2 (stereo not drawn) | > 200 µM | > 200 µM | –
43 | Cc1ccc(-c2nnc3s/c(=C\c4ccc(N(C)C)cc4)c(=O)n23)cc1 | > 27.5 µM | 16.2 µM | –
44 | CC(=O)OCC(OC(C)=O)C(OC(C)=O)C(C=NN(C(C)=O)S(=O)(=O)c1ccc(/C=C2\NC(=O)NC2=O)cc1)OC(C)=O (stereo not drawn) | > 200 µM | 97.7 µM | –
45 | COc1ccccc1C1CC(=O)CC(c2ccccc2OC)C12C(=O)NC(=S)NC2=O (stereo not drawn) | > 200 µM | 46.8 µM | –
46 | NC(CCCCNCC(N)C(=O)O)C(=O)O (stereo not drawn) | > 933 µM | > 933 µM | –
47 | Cc1coc(NS(=O)(=O)c2ccc(N=Nc3c(N)n(C)c(=O)n(C)c3=O)cc2)c1C | – | – | inactive
48 | N#Cc1[nH]c(=S)[nH]c1N | > 200 µM | 117 µM | –
49 | CCCC/C=C/C/C=C/CCCCCCCCC(=O)OCC1CCCN2CCCCC12 (stereo not drawn) | > 200 µM | 7.94 µM | –
50 | O=C(O)CN(CC(=O)O)C1CCCCC1N(CC(=O)O)CC(=O)NCCN=C=S (stereo not drawn) | > 200 µM | > 200 µM | –
51 | Cc1cc(=O)[nH]c2cc(NC(=O)C(C)NC(=O)C(C)NC(=O)C(C)NC(=O)OC(C)(C)C)ccc12 (stereo not drawn) | > 200 µM | > 200 µM | –
52 | N#Cc1c2c(c(-c3cccs3)n(C3OC(CO)C(O)C(O)C3O)c1=S)CCc1ccccc1-2 (stereo not drawn) | – | – | inactive
53 | CC1=CCC2(C#N)CCC1C2O (stereo not drawn) | > 1510 µM | > 1510 µM | –
54 | CCC(C)(C)C1CCC2c3c([nH]c4ccccc34)C3C(=O)N(c4ccc(OC)cc4)C(=O)C3C2C1 (stereo not drawn) | > 200 µM | 7.76 µM | –
55 | c1cc2c(s1)-c1sccc1C21OCCO1 | > 200 µM | 162 µM | –
56 | FC(F)(F)c1nc2cc(SSc3cc4nc(C(F)(F)F)[nH]c4cc3Cl)c(Cl)cc2[nH]1 | > 200 µM | 7.41 µM | –
57 | CC[C@H]1CN2CCc3c([nH]c4ccccc34)C2C[C@@H]1CCO (stereo partly drawn) | > 120 µM | > 120 µM | –
58 | COc1cc(/C=N\NS(=O)(=O)c2ccc(N)cc2)ccc1O | > 295 µM | 209 µM | –
59 | c1ccc(SC2(Sc3ccccc3)CCCCCCCCCCC2)cc1 | > 200 µM | 166 µM | –
60 | C[Si](C)(c1ccccc1)C1CC(=O)CC(=O)C1 | > 380 µM | 245 µM | –

From PubChem BioAssay AID179 (DTP/NCI, 2004)
